The test system of one data set is NCI-H358. As to the kind of experiment: Antiproliferative activity against human NCI-H358 cells harboring KRAS p.G12C mutant assessed as inhibition of cell growth incubated for 72 hrs by cell count reagent SF based assay. Format: functional. The following applies: NCI-H358, 72 h.
Data set [1] deals with GTPase KRas (Homo sapiens), P01116 [G12C]. The data set is described as follows: Covalent binding affinity to recombinant human KRAS G12C mutant (1 to 169 residues) expressed in Escherichia coli BL21 (DE3) gold assessed as protein labelling at 1 uM incubated for 2 hrs by In-gel fluorescence analysis.
Data set [2] can be described thus: Antiproliferative activity against human gefitinib resistant NCI-H1975 cells harboring EGFR L858R/T790M double mutant assessed as inhibition of cell proliferation incubated for 72 hrs by cell count reagent SF based assay. Format: functional.
The nature of data set [3]: Glutathione reactivity in potassium phosphate buffer at pH 7.2 assessed as half life at 1 mM by UHPLC analysis. Format: physicochemical.
A short description of data set [4]: Metabolic stability in human liver microsomes assessed as clearance at 1 uM incubated for 30 mins by LC-MS/MS analysis. In kind it is ADME, Microsome. Conditions: read-out: CLH. In general terms: Liver microsomes are vesicles of endoplasmic reticulum, rich in cytochrome P450 enzymes.
In another data set the test system is MIA PaCa-2. The data set is described as follows: Antiproliferative activity against human MIA PaCa-2 cells assessed as inhibition of cell growth incubated for 72 hrs by cell count reagent SF based assay. Format: functional. The following applies: MIA PaCa-2, 72 h.
Data set [5] addresses Epidermal growth factor receptor (Homo sapiens) (UniProt P00533). As to the kind of experiment: Inhibition of EGFR autophosphorylation at Y1068 residue in human NCI-H1975 cells at 0.01 to 1 uM incubated for 4 hrs by Western blot analysis. In kind it is cell-based. The following applies: dose 0.01-1 µM. On the technique in general: Immunoblotting shows a protein as a band on a membrane.

The target is the same in data set [6]. As to the kind of experiment: Inhibition of EGFR autophosphorylation in human NCI-H1975 cells assessed as reduction in ERK1/2 phosphorylation at T185/Y187 residue at 0.01 to 1 uM incubated for 4 hrs by Western blot analysis. Format: cell-based. The following applies: dose 0.01-1 µM.
The subject of data set [7] is GTPase KRas (Homo sapiens), P01116 [G12C]. As to the kind of experiment: Inhibition of KRAS G12C mutant in human NCI-H358 cells assessed as reduction in ERK1/2 phosphorylation at T185/Y187 residues at 0.1 uM incubated for 4 hrs by Western blot analysis relative to control. In kind it is cell-based.
Data set [8] has the same test system. The data set is described as follows: Inhibition of KRAS G12C mutant in human NCI-H358 cells assessed as reduction in ERK1/2 phosphorylation at T185/Y187 residues at 1 uM incubated for 4 hrs by Western blot analysis. Format: cell-based.
The test system is the same in data set [9]. The data set is described as follows: Covalent inhibition of KRAS G12C mutant in human NCI-H358 cells assessed as reduction in protein labelling by probe at 1 uM preincubated for 3 hrs and further incubated with 2-((S)-4-(7-(8-chloronaphthalen-1-yl)-2-(((S)-1-(pent-4-yn-1-yl)pyrrolidin-2-yl)methoxy)-5,6,7,8-tetrahydropyrido[3,4-d]pyrimi …. Format: cell-based. The following applies: time 4.0 hrs.

Data set [10] shares this test system. As to the kind of experiment: Inhibition of KRAS G12C mutant in human MIA PaCa-2 cells assessed as reduction in ERK1/2 phosphorylation at T185/Y187 residues at 0.5 uM incubated for 0.5 to 4 hrs by Western blot analysis. Format: cell-based. Conditions: time 0.5-4 hrs.
Data set [11] has the same test system. As to the kind of experiment: Inhibition of KRAS G12C mutant in human MIA PaCa-2 cells assessed as reduction in ERK1/2 phosphorylation at T185/Y187 residues at 0.001 to 1 uM incubated for 4 hrs by Western blot analysis. In kind it is cell-based. The following applies: dose 0.001-1 µM.
For data set [12] the test system is unchanged. The data set is described as follows: Inhibition of KRAS G12C mutant in human NCI-H358 cells assessed as reduction in ERK1/2 phosphorylation at T185/Y187 residues at 0.5 uM incubated for 0.5 to 4 hrs by Western blot analysis. In kind it is cell-based. Conditions: time 0.5-4 hrs.
Data set [13] has the same test system. As to the kind of experiment: Irreversible inhibition of KRAS G12C mutant in human NCI-H358 cells assessed as reduction in ERK1/2 phosphorylation at T185/Y187 residues at 0.001 to 1 uM incubated for 4 hrs followed by washout and further incubated with fresh medium for 4 hrs by Western blot analysis. In kind it is cell-based. The following applies: dose 0.001-1 µM.

Data set [14] shares this test system. The data set is described as follows: Inhibition of KRAS G12C mutant in human NCI-H358 cells assessed as reduction in ERK1/2 phosphorylation at T185/Y187 residues at 0.001 to 1 uM incubated for 4 hrs by Western blot analysis. In kind it is cell-based. Conditions: dose 0.001-1 µM.
For data set [15] the test system is unchanged. As to the kind of experiment: Inhibition of KRAS G12C mutant in human NCI-H358 cells assessed as reduction in ERK1/2 phosphorylation at T185/Y187 residues upto 10 uM incubated for 4 hrs by Western blot analysis. In kind it is cell-based.
The test system is the same in data set [16]. As to the kind of experiment: Binding affinity to KRAS G12C mutant in human NCI-H358 cells assessed as protein labelling at 1 uM incubated for 1 hrs by In-gel fluorescence analysis. Format: cell-based.

Experimental findings from ChEMBL document CHEMBL5331132, “Expanding the Chemistry of Dihaloacetamides as Tunable Electrophiles for Reversible Covalent Targeting of Cysteines” (J Med Chem, 2023) are described below.

Calls of active or inactive are those of the source. Some results are limits rather than exact numbers.

Broadly, the IC50 is the concentration that gives 50% inhibition. One may read the half-life as the time needed for the level to fall by half in the phase considered. The inhibition is the drop in the measured response relative to a control, in per cent.

Consider `C#CCCCN1CCC[C@H]1COc1nc2c(c(N3CCN(C(=O)[C@@H](F)Cl)[C@@H](CC#N)C3)n1)CCN(c1cccc3cccc(Cl)c13)C2`, for which the IC50 with NCI-H358 stood at 365 nM. In [1], the outcome was Active.
In the case of `O=C(Nc1cc2c(Nc3ccc(F)c(Cl)c3)ncnc2cc1OCCCN1CCOCC1)[C@H]1CCCN1C(=O)C(F)Cl` (some centres undefined), in data set [2], the IC50 was 280 nM.
As for `C#CCCCN1CCC[C@H]1COc1nc2c(c(N3CCN(C(=O)C(Cl)Cl)[C@@H](CC#N)C3)n1)CCN(c1cccc3ccc(F)c(Cl)c13)C2`, the IC50 in the data set with NCI-H358 came to 69.7 nM. For the same compound, the outcome in [1] was Active.
Take `C#CCOCCOCCOc1cccc(N2CCN(C(=O)C(C)(F)Br)CC2)c1` (centres undefined): in [3], the half-life at 1000 µM is greater than 167 h.
Take `C=C(F)C(=O)N1CCN(c2nc(OC[C@@H]3CCCN3C)nc3c2CCN(c2cccc4cccc(Cl)c24)C3)C[C@@H]1CC#N` [ADAGRASIB]: the microsomal CLint at 1 µM in data set [4] is 215 µL/min/mg. Besides, the IC50 in the data set on MIA PaCa-2 stood at 3.92 nM; with NCI-H358 it was 9.2 nM.
In the case of `O=C(Nc1cc2c(Nc3ccc(F)c(Cl)c3)ncnc2cc1OCCCN1CCOCC1)[C@H]1CCCN1C(=O)C(Cl)Cl`, the IC50 in [2] was determined as 490 nM. The inhibition entry in data set [5] and in data set [6] was “Active” throughout.
Turning to `CN1CCC[C@H]1COc1nc2c(c(N3CCN(C(=O)C(Cl)Cl)[C@@H](CC#N)C3)n1)CCN(c1cccc3cccc(Cl)c13)C2`, the microsomal CLint at 1 µM in [4] stood at 226 µL/min/mg. The inhibition in data set [7] turned out to be 100%. Moreover, the inhibition entry in data set [8] is “Active”. Besides, in the data set with NCI-H358, the IC50 was found to be 26.1 nM.
Turning to `CN1CCC[C@H]1COc1nc2c(c(N3CCN(C(=O)C(F)Cl)CC3)n1)CCN(c1cccc3cccc(Cl)c13)C2` (some centres undefined), the IC50 in the data set with NCI-H358 was 4800 nM.
Turning to `CN1CCC[C@H]1COc1nc2c(c(N3CCN(C(=O)CCl)[C@@H](CC#N)C3)n1)CCN(c1cccc3cccc(Cl)c13)C2`, in the data set with NCI-H358, the IC50 was found to be 1390 nM.
In the case of `CN1CCC[C@H]1COc1nc2c(c(N3CCN(C(=O)C(Cl)Cl)[C@@H](CC#N)C3)n1)CCN(c1cccc3ccc(F)c(Cl)c13)C2`, the inhibition result in [9], in data set [10], in [11], in data set [12], in [13] and in data set [14] was “Active” each time. Further, the microsomal CLint at 1 µM in [4] stood at 110 µL/min/mg. Further, the IC50 in the data set with MIA PaCa-2 was 5.68 nM; in the data set on NCI-H358, 10 nM.
For the compound `CN1CCC[C@H]1COc1nc2c(c(N3CCN(C(=O)[C@@H](F)Cl)[C@@H](CC#N)C3)n1)CCN(c1cccc3cccc(Cl)c13)C2`, the microsomal CLint at 1 µM in data set [4] amounted to 272 µL/min/mg. In data set [7], the inhibition was 100%. Moreover, the inhibition entry in [8] was “Active”. Moreover, the IC50 in the data set on NCI-H358 came to 12.3 nM.
Turning to `CC(=O)N1CCN(c2nc(OC[C@@H]3CCCN3C)nc3c2CCN(c2cccc4cccc(Cl)c24)C3)C[C@@H]1CC#N` (racemic), in [15], the inhibition entry was “inactive”. Moreover, the IC50 with NCI-H358 was greater than 10000 nM.
On to `CN1CCC[C@H]1COc1nc2c(c(N3CCN(C(=O)C(F)Cl)[C@@H](CC#N)C3)n1)CCN(c1cccc3cccc(Cl)c13)C2` (some centres undefined), for which, in the data set on NCI-H358, the IC50 came out at 16.7 nM.
For the compound `C#CCOCCOCCOc1cccc(N2CCN(C(=O)C(F)(F)Br)CC2)c1`, the half-life at 1000 µM in data set [3] was determined as 33.4 h.
On the same count and under the same terms, with `C#CCOCCOCCOc1cccc(N2CCN(C(=O)C(F)F)CC2)c1` the figure was 129 h.
With `CN1CCC[C@H]1COc1nc2c(c(N3CCN(C(=O)[C@H](F)Cl)[C@@H](CC#N)C3)n1)CCN(c1cccc3cccc(Cl)c13)C2`, the IC50 in the data set with NCI-H358 is 162 nM.
As to `C#CCCCN1CCC[C@H]1COc1nc2c(c(N3CCN(C(=O)C(=C)F)[C@@H](CC#N)C3)n1)CCN(c1cccc3cccc(Cl)c13)C2`, in data set [16], the outcome was Active.
Turning to `C#CCOCCOCCOc1cccc(N2CCN(C(=O)CF)CC2)c1`, in data set [3], the half-life at 1000 µM is greater than 167 h.
